Test results taken from patent publication US7417156B2, “Orally active, antimalarial, anticancer, artemisinin-derived trioxane dimers” (Johns Hopkins University, priority 2002, dated 2008).

How the values were obtained:
M14 = experiment: NCI 60 cell line panel screen (SRB); assay type: cell-based, human; details: for Log10LC50: M14 (Melanoma), LC50: PG=−50; for Log10TGI50: M-14 (Melanoma), TGI: PG=0; for Log10GI50: Melanoma, M14
SK-OV-3 = experiment: NCI 60 cell line panel screen (SRB); assay type: cell-based, human; details: for Log10GI50: Ovarian Cancer, SK-OV-3; for Log10LC50 / Log10TGI50: SK-OV-3 (Ovarian Cancer); for Log10LC50: LC50: PG=−50; for Log10TGI50: TGI: PG=0
OVCAR-5 = experiment: NCI 60 cell line panel screen (SRB); assay type: cell-based, human; details: for Log10LC50 / Log10TGI50: OVCAR-5 (Ovarian Cancer); for Log10LC50: LC50: PG=−50; for Log10TGI50: TGI: PG=0; for Log10GI50: Ovarian Cancer, OVCAR-5
HS 578T = experiment: NCI 60 cell line panel screen (SRB); assay type: cell-based, human; details: for Log10GI50: Breast Cancer, HS 578T; for Log10LC50 / Log10TGI50: HS 578T (Breast Cancer); for Log10LC50: LC50: PG=−50; for Log10TGI50: TGI: PG=0
[1] = system: P. berghei NY malaria parasite; experiment: Antimalarial efficacies in vivo in mice
From the text: Neither overt toxicity nor behavioral modification was observed due to drug administration in any of these mouse experiments.

KM12 = experiment: NCI 60 cell line panel screen (SRB); assay type: cell-based, human; details: for Log10GI50: Colon Cancer, KM12; for Log10LC50 / Log10TGI50: KM12 (Colon Cancer); for Log10LC50: LC50: PG=−50; for Log10TGI50: TGI: PG=0
MDA-N = experiment: NCI 60 cell line panel screen (SRB); assay type: cell-based, human; details: Breast Cancer, MDA-N
U251 = experiment: NCI 60 cell line panel screen (SRB); assay type: cell-based, human; details: for Log10GI50: CNS Cancer, U251; for Log10LC50 / Log10TGI50: U251 (CNS Cancer); for Log10LC50: LC50: PG=−50; for Log10TGI50: TGI: PG=0
SF-268 = experiment: NCI 60 cell line panel screen (SRB); assay type: cell-based, human; details: for Log10GI50: CNS Cancer, SF-268; for Log10LC50 / Log10TGI50: SF-268 (CNS Cancer); for Log10LC50: LC50: PG=−50; for Log10TGI50: TGI: PG=0
NCI-H226 = experiment: NCI 60 cell line panel screen (SRB); assay type: cell-based, human
HOP-92 = experiment: NCI 60 cell line panel screen (SRB); assay type: cell-based, human; details: for Log10LC50 / Log10TGI50: HOP-92 (Non-Small Cell Lung Cancer); for Log10LC50: LC50: PG=−50; for Log10TGI50: TGI: PG=0; for Log10GI50: Non-Small Cell Lung Cancer, HOP-92
malaria parasite = experiment: Efficacy Study Blood Schizontocidal Activity; assay type: in vivo; design: ED90: unit not given here
OVCAR-4 = experiment: NCI 60 cell line panel screen (SRB); assay type: cell-based, human; details: for Log10LC50 / Log10TGI50: OVCAR-4 (Ovarian Cancer); for Log10LC50: LC50: PG=−50; for Log10TGI50: TGI: PG=0; for Log10GI50: Ovarian Cancer, OVCAR-4
SN12C = experiment: NCI 60 cell line panel screen (SRB); assay type: cell-based, human; details: for Log10GI50: Renal Cancer, SN12C; for Log10LC50: LC50: PG=−50
ACHN = experiment: NCI 60 cell line panel screen (SRB); assay type: cell-based, human; details: for Log10LC50 / Log10TGI50: ACHN (Renal Cancer); for Log10LC50: LC50: PG=−50; for Log10TGI50: TGI: PG=0
HCC-2998 = experiment: NCI 60 cell line panel screen (SRB); assay type: cell-based, human; details: for Log10LC50 / Log10TGI50: HCC-2998 (Colon Cancer); for Log10LC50: LC50: PG=−50; for Log10TGI50: TGI: PG=0
SW-620 = experiment: NCI 60 cell line panel screen (SRB); assay type: cell-based, human; details: for Log10GI50: Colon Cancer, SW-620; for Log10LC50 / Log10TGI50: SW-620 (Colon Cancer); for Log10LC50: LC50: PG=−50; for Log10TGI50: TGI: PG=0
LOX IMVI = experiment: NCI 60 cell line panel screen (SRB); assay type: cell-based, human; details: for Log10LC50 / Log10TGI50: LOX IMVI (Melanoma); for Log10LC50: LC50: PG=−50; for Log10TGI50: TGI: PG=0; for Log10GI50: Melanoma, LOX IMVI
A498 = experiment: NCI 60 cell line panel screen (SRB); assay type: cell-based, human; details: for Log10LC50: LC50: PG=−50; for Log10GI50: Renal Cancer, A498
UACC-62 = experiment: NCI 60 cell line panel screen (SRB); assay type: cell-based, human; details: for Log10GI50: Melanoma, UACC-62; for Log10LC50 / Log10TGI50: UACC-62 (Melanoma); for Log10LC50: LC50: PG=−50; for Log10TGI50: TGI: PG=0
SK-MEL-5 = experiment: NCI 60 cell line panel screen (SRB); assay type: cell-based, human
SF-295 = experiment: NCI 60 cell line panel screen (SRB); assay type: cell-based, human
DU-145 = experiment: NCI 60 cell line panel screen (SRB); assay type: cell-based, human; details: for Log10TGI50: TGI: PG=0; for Log10GI50: Prostate Cancer, DU-145
SR = experiment: NCI 60 cell line panel screen (SRB); assay type: cell-based, human; details: SR (Leukemia)

## CC1CCC2C(C)C(CC(COC(=O)CCC(=O)O)CC3OC4OC5(C)CCC6C(C)CCC(C3C)C46OO5)OC3OC4(C)CCC1C32OO4 (stereo not shown) [Compound 8a, bis-trioxane primary succinate monoester]
M14
  Log10LC50: >−4.30 log10M
  Log10TGI50: >−4.30 log10M
  Log10GI50: −6.94
SK-OV-3
  Log10GI50: −4.89
  Log10LC50: >−4.30 log10M
  Log10TGI50: >−4.30 log10M
OVCAR-5
  Log10LC50: >−4.30 log10M
  Log10TGI50: −6.62 log10M
  Log10GI50: <−8.30
HS 578T
  Log10GI50: >−4.30
  Log10LC50: >−4.30 log10M
  Log10TGI50: >−4.30 log10M
[1]; route IV
  ED50: 2.2 mg/kg × 4
  ED90: 6.3 mg/kg × 4
  % Parasite Supression at 10 mg/kg: 81.0%
[1]; route PO
  ED50: 9.0 mg/kg × 4
  ED90: 15.0 mg/kg × 4
  % Parasite Supression at 10 mg/kg: 79.2%
KM12
  Log10GI50: <−8.30
  Log10LC50: −4.60 log10M
  Log10TGI50: <−8.30 log10M
MDA-N
  Log10GI50: −7.29
U251
  Log10GI50: −8.20
  Log10LC50: >−4.30 log10M
  Log10TGI50: >−4.30 log10M
SF-268
  Log10GI50: −7.11
  Log10LC50: >−4.30 log10M
  Log10TGI50: >−4.30 log10M
NCI-H226; NCI-H226 (Non-Small Cell Lung Cancer), LC50: PG=−50
  Log10LC50: >−4.30 log10M
NCI-H226; NCI-H226 (Non-Small Cell Lung Cancer), TGI: PG=0
  Log10TGI50: −6.67 log10M
NCI-H226; Non-Small Cell Lung Cancer, NCI-H226
  Log10GI50: <−8.30
HOP-92
  Log10LC50: >−4.30 log10M
  Log10TGI50: >−4.30 log10M
  Log10GI50: −6.56

## CC1CCC2C(C)C(CC(COC(=O)c3cc[n+]([O-])cc3)CC3OC4OC5(C)CCC6C(C)CCC(C3C)C46OO5)OC3OC4(C)CCC1C32OO4 (stereo not shown) [Compound 13, bis-trioxane primary alcohol isonicotinate N-oxide]
M14
  Log10LC50: >−4.30 log10M
  Log10TGI50: −4.75 log10M
  Log10GI50: −5.81
SK-OV-3
  Log10GI50: −5.13
  Log10LC50: −4.31 log10M
  Log10TGI50: −4.72 log10M
Malaria parasite; Route: IV
  ED50: 0.55 mg/kg
  ED90: 2.0
Malaria parasite; Route: PO
  ED50: 4 mg/kg
  ED90: 9.0
Malaria parasite; orally and i.v.
  efficacy relative to sodium artesunate in words: more efficacious
OVCAR-4
  Log10LC50: −4.42 log10M
  Log10TGI50: −4.93 log10M
  Log10GI50: <−8.30
OVCAR-5
  Log10LC50: −4.66 log10M
  Log10TGI50: −5.14 log10M
  Log10GI50: <−8.30
SN12C
  Log10GI50: <−8.30
SN12C; SN12C (Renal Cancer)
  Log10LC50: −4.72 log10M
SN12C; SN12C (Renal Cancer), TGI: PG=0
  Log10TGI50: −5.29 log10M
ACHN
  Log10LC50: −4.79 log10M
  Log10TGI50: −6.57 log10M
ACHN; Renal Cancer, ACHN
  Log10GI50: <−8.30
HS 578T
  Log10GI50: <−8.30
  Log10LC50: −4.35 log10M
  Log10TGI50: −5.00 log10M
KM12
  Log10GI50: <−8.30
  Log10LC50: −4.37 log10M
  Log10TGI50: −5.04 log10M
HCC-2998
  Log10LC50: −4.55 log10M
  Log10TGI50: −4.91 log10M
SW-620
  Log10GI50: <−8.30
  Log10LC50: −4.53 log10M
  Log10TGI50: −5.05 log10M
LOX IMVI
  Log10LC50: −5.78 log10M
  Log10TGI50: <−8.30 log10M
  Log10GI50: <−8.30
A498; A498 (Renal Cancer)
  Log10LC50: −4.74 log10M
A498; A498 (Renal Cancer), TGI: PG=0
  Log10TGI50: −5.31 log10M
A498
  Log10GI50: −6.97
UACC-62
  Log10GI50: −8.00
  Log10LC50: −4.66 log10M
  Log10TGI50: −5.07 log10M
SK-MEL-5; Melanoma, SK-MEL-5
  Log10GI50: <−8.30
SK-MEL-5; SK-MEL-5 (Melanoma), LC50: PG=−50
  Log10LC50: −4.73 log10M
SK-MEL-5; SK-MEL-5 (Melanoma), TGI: PG=0
  Log10TGI50: −5.28 log10M
U251
  Log10GI50: <−8.30
  Log10LC50: −4.69 log10M
  Log10TGI50: −5.08 log10M
SF-295; CNS Cancer, SF-295
  Log10GI50: −5.21
SF-295; SF-295 (CNS Cancer), LC50: PG=−50
  Log10LC50: −4.33 log10M
SF-295; SF-295 (CNS Cancer), TGI: PG=0
  Log10TGI50: −4.77 log10M
DU-145; DU-145 (Prostate Cancer)
  Log10TGI50: −5.00 log10M
DU-145
  Log10GI50: −7.48
SF-268
  Log10GI50: −5.29
  Log10LC50: −4.31 log10M
  Log10TGI50: −4.80 log10M
HOP-92
  Log10LC50: −4.74 log10M
  Log10TGI50: −5.27 log10M
  Log10GI50: −8.04

## CC(=O)O[C@H]1C(=O)[C@@]2(C)[C@H]([C@H](OC(=O)c3ccccc3)[C@]3(O)C[C@H](OC(=O)[C@H](O)[C@@H](NC(=O)c4ccccc4)c4ccccc4)C(C)=C1C3(C)C)[C@]1(OC(C)=O)CO[C@@H]1C[C@@H]2O [Paclitaxel, paclitaxel, reference compound]
M14
  Log10LC50: −4.13 log10M
  Log10TGI50: −4.62 log10M
  Log10GI50: −11.73
OVCAR-4
  Log10LC50: >−4.00 log10M
  Log10TGI50: −4.19 log10M
  Log10GI50: −5.00
OVCAR-5
  Log10LC50: >−4.00 log10M
  Log10TGI50: −4.92 log10M
  Log10GI50: −9.38
SN12C
  Log10GI50: −9.53
SN12C; SN12C (Renal Cancer)
  Log10LC50: >−4.00 log10M
ACHN
  Log10LC50: −4.45 log10M
  Log10TGI50: −4.90 log10M
KM12
  Log10GI50: −11.43
  Log10LC50: >−4.00 log10M
  Log10TGI50: −4.36 log10M
HCC-2998; Colon Cancer, HCC-2998
  Log10GI50: −12.34
HCC-2998
  Log10LC50: −4.26 log10M
  Log10TGI50: −4.77 log10M
SW-620
  Log10GI50: −11.60
  Log10LC50: >−4.00 log10M
  Log10TGI50: >−4.00 log10M
LOX IMVI
  Log10LC50: >−4.15 log10M
  Log10TGI50: −4.65 log10M
  Log10GI50: −11.80
MDA-N
  Log10GI50: <−13.00
A498; A498 (Renal Cancer)
  Log10LC50: −4.13 log10M
A498
  Log10GI50: −7.14
UACC-62
  Log10GI50: −10.46
  Log10LC50: −4.19 log10M
  Log10TGI50: −4.71 log10M
U251
  Log10GI50: −11.29
  Log10LC50: −4.15 log10M
  Log10TGI50: −4.32 log10M
DU-145; DU-145 (Prostate Cancer), LC50: PG=−50
  Log10LC50: >−4.00 log10M
DU-145; DU-145 (Prostate Cancer)
  Log10TGI50: >−4.00 log10M
DU-145
  Log10GI50: −9.38
SR; LC50: PG=−50
  Log10LC50: >−4.00 log10M
SR; TGI: PG=0
  Log10TGI50: >−4.00 log10M
